# Results taken from patent publication US12240811B2, “N-heterocyclic five-membered ring-containing capsid protein assembly inhibitor, pharmaceutical composition and uses thereof” (CHIA TAI TIANQING PHARMACEUTICAL GROUP CO., LTD., priority 2019, dated 2025).
# Where two headings read alike, the source gives them in different places.
# Key:
# CYP 3A4 = CYP 3A4 (Homo sapiens (Human), UniProt P08684); experiment: CYP450 enzyme inhibition study, CYP 3A4; type: in vitro ADME; conditions: human liver microsomes; read-out: Subtypes IC50 3A4
# Procedure: (§1) 500 μL of a final incubation system contains 50 μL of human liver microsomes (protein concentration: 0.2 mg/mL, Corning), 1 μL of mixed CYP450 specific substrates (CYP1A2, CYP 2B6, CYP 2C9, CYP2C19, CYP 2D6, and CYP 3A4), 398 μL PBS buffer (pH7.4), 1 μL specific positive inhibitor (positive control group) or the test compound (formulated with acetonitrile), and 50 μL NADPH+MgCl2. Duplicate incubation systems of 0.5 mL each were formulated for each CYP450 subtype. A total volume of 450 μL of a uniformly mixed solution of the substrate and the enzyme was formulated in each tube, and the solution and NADPH were pre-incubated at 37° C. for 5 minutes, respectively. Then 50 μL of the mixed solution of NADPH+MgCl2 was added for reaction. 50 μL of the reaction solution was taken out at 30 minutes, and the reaction was terminated with 300 μL of ice acetonitrile containing an internal standard. In addition, two control groups of 500 μL each without NADPH were prepared in parallel as a negative control group.
# (§2) Sample pre-treatment: To 50 μL of the incubated sample was added 300 μL of ice acetonitrile containing an internal standard, and then precipitated. After vortexing for 5 minutes, the sample was centrifugated (12000 rpm, 4° C.) for 10 minutes. 75 μL of the supernatant was pipetted, and 75 μL of ultrapure water was added thereto for dilution and mixed uniformly. […]
# CYP 2D6 = CYP 2D6 (Homo sapiens (Human), UniProt P10635); experiment: CYP450 enzyme inhibition study, CYP 2D6; type: in vitro ADME
# Procedure: as §1, §2
# CYP1A2 = CYP1A2 (Homo sapiens (Human), UniProt P05177); experiment: CYP450 enzyme inhibition study, CYP1A2; type: in vitro ADME
# Procedure: as §1, §2
# [1] = Plasma protein binding assay, rat plasma; type: in vitro ADME
# Procedure: (§3) Formulation of plasma sample: 495 μL of blank plasmas of the corresponding species (mouse, rat, dog, monkey, and human) were drawn respectively, and thereto was added 5 μL of the corresponding test compound solution or positive control to give plasma sample solutions having a plasma drug concentration of the compound of 1 μM, and 10 μM, respectively (formulated with acetonitrile).
# (§4) The pre-treated dialysis membrane was placed in a high-throughput equilibrium dialysis device, and 100 μL of the plasma sample solution and PBS buffer solution were drawn and added respectively to both sides of the dialysis membrane (sample side and buffer side) (n=3). After the equilibration device was sealed with a film, it was incubated at 37° C. overnight (100 rpm). After dialysis equilibrium was reached, 50 μL samples were drawn from the sample side and the buffer side, respectively, and the reaction was terminated by adding ice acetonitrile containing an internal standard.
# as §2, with “plasma-side” for “incubated”, “450” for “300”, “uniformly. 1 μL of the resulting solution was injected for analysis.” for “uniformly.”
# [2] = Plasma protein binding assay, dog plasma; type: in vitro ADME
# Procedure: as §3, §4
# as §2, with “plasma-side” for “incubated”, “450” for “300”, “uniformly. 1 μL of the resulting solution was injected for analysis.” for “uniformly.”
# [3] = Stability of liver microsomes in vitro, rat; type: in vitro ADME
# Procedure: 300 μL of a final incubation system contains 30 μL of liver microsomes (protein concentration: 0.15 mg/mL, Corning), 30 μL NADPH+MgCl2, 3 μL substrate (formulated with acetonitrile), and 237 μL PBS buffer. Duplicate incubation systems of 0.3 mL each were formulated for each species. A total volume of 270 μL of a uniformly mixed solution of the substrate and the enzyme was formulated in each tube, the solution and NADPH were pre-incubated at 37° C. for 5 minutes, respectively. Then 30 μL of the mixed solution of NADPH+MgCl2 was added for reaction. 50 μL of the reaction solution was taken out at 0, 10, 30, and 60 mins, and the reaction was terminated with 300 μL of ice acetonitrile containing an internal standard.
# Sample pre-treatment: To 50 μL of the incubated sample was added 300 μL of ice acetonitrile containing diazepam as an internal standard and then precipitated. After vortexing for 5 minutes, the sample was centrifugated (12000 rpm, 4° C.) for 10 minutes. 75 μL of the supernatant was pipetted into a 96-well plate, and then diluted with 75 μL ultrapure water and mixed uniformly. 0.5 μL of the resulting solution was injected and analyzed by LC-MS/MS.
# HBV DNA in serum = experiment: Antiviral effect evaluation in AAV mouse model (rAAV8-1.3HBV); type: in vivo, C57BL/6 mice; conditions: for Reduction levels (log10) of HBV DNA in serum, Day 28: Day 28 (1 week after administration suspended)
# Procedure: 6-8 week old male C57BL/6 mice (Shanghai Lingchang Biotechnology Co., Ltd.) were injected with rAAV8-1.3HBV virus (Beijing FivePlus Gene Technology Ltd., adr subtype) at tail vein at a dose of 1×10^11 vg. Blood was collected from the orbits of the mice on week 2 and 4 after the virus injection. The serum was separated, and the expression levels of HBeAg and HBsAg in the serum and the HBV DNA copy number were detected to evaluate whether the model was successfully established. According to the results of quantitative detection of serological HBeAg, HBsAg and HBV DNA, the mice having HBV DNA expression level greater than 1×10^4 IU/mL, HBeAg expression level greater than 1×10^3 NCU/mL and HBsAg expression level greater than 1×10^3 ng/mL were selected. The mice were grouped into a blank control group, a vehicle control group, and a test substance group. The mice in each group were continuously administered intragastrically once daily for 3 weeks and then the administration was suspended for 1 week. During the experiment, blood was collected from the orbits every other week, serum was separated, and the DNA content was detected by fluorescent quantitative PCR method.
# [4] = In vivo pharmacokinetics (PK) study in rats; design: species or system SD rats; conditions: for half-life: SD, in vivo; for AUC(0-t): read-out: AUC(0-48 h)
# [5] = rat, plasma, SD rats, IV 5 mg/kg
# [6] = rat, plasma, SD rats, PO 10 mg/kg
# Sequence of CYP 3A4 (P08684 whole entry): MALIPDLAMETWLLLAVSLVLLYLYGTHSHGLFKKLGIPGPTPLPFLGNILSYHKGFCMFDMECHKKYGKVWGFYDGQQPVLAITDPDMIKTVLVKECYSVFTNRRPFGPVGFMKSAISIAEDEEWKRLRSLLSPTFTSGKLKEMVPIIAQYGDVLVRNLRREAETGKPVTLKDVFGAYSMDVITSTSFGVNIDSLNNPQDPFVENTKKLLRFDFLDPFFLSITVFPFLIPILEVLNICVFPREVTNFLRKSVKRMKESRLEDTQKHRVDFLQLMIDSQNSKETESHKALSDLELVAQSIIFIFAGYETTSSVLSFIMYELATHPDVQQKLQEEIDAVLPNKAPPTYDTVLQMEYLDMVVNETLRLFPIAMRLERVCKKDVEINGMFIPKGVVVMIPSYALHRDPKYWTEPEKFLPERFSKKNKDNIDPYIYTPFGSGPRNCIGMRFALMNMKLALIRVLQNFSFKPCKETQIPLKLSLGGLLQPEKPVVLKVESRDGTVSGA
# Sequence of CYP 2D6 (P10635 whole entry): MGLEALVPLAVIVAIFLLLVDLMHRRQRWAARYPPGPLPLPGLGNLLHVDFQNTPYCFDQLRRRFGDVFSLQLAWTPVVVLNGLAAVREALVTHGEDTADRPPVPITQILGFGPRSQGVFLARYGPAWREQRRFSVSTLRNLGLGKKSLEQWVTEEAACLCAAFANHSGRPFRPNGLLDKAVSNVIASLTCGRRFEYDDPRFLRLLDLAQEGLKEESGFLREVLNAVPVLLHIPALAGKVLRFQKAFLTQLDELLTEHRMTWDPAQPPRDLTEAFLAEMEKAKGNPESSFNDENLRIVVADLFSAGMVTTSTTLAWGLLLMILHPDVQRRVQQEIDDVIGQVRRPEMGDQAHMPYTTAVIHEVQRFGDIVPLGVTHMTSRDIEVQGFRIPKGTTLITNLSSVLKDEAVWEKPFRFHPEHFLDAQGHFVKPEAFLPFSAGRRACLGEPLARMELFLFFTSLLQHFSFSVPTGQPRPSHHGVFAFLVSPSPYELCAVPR
# Sequence of CYP1A2 (P05177 whole entry): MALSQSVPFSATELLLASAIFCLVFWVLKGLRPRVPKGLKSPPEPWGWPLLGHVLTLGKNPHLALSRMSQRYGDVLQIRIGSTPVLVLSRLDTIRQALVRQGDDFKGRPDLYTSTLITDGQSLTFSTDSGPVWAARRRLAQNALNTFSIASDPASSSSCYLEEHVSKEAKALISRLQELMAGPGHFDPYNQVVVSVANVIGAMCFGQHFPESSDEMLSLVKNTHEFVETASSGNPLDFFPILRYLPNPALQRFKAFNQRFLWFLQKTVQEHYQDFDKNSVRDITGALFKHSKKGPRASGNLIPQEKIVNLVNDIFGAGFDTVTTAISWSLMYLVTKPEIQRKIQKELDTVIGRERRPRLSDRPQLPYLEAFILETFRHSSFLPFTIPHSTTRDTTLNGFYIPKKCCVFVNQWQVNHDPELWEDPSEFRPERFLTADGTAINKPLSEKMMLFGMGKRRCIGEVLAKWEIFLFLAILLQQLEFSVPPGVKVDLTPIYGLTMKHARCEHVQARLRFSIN
compound,measurement,setting,value
"Cc1[nH]c(C(=O)C(=O)N[C@@H](C)C(F)(F)F)c(C)c1C(=O)Nc1ccc(F)c(C#N)c1 [Example 1, (S)—N-(3-cyano-4-fluorophenyl)-2,4-dimethyl-5-(2-oxo-2-((1,1,1-trifluoroprop-2-yl)amino)acetyl)-1H-pyrrole-3-carboxamide]",IC50,CYP 3A4,> 200 µM
same,IC50,CYP 2D6,54 µM
same,IC50,CYP1A2,49 µM
same,Binding rate (%) Rat,[1]; 1 μM,95.0%
same,Binding rate (%) Rat,[1]; 10 μM,95.3%
same,Binding rate (%) Dog,[2]; 1 μM,94.0%
same,Binding rate (%) Dog,[2]; 10 μM,93.9%
same,Remaining (%) of rat liver microsomes at 60 min,[3],99%
same,"Reduction levels (log10) of HBV DNA in serum, Day 7",HBV DNA in serum; 1 mpk intragastric once daily,2.49 log10
same,"Reduction levels (log10) of HBV DNA in serum, Day 14",HBV DNA in serum; 1 mpk intragastric once daily,3.41 log10
same,"Reduction levels (log10) of HBV DNA in serum, Day 21",HBV DNA in serum; 1 mpk intragastric once daily,3.65 log10
same,"Reduction levels (log10) of HBV DNA in serum, Day 28",HBV DNA in serum; 1 mpk,3.25 log10
same,"Reduction levels (log10) of HBV DNA in serum, Day 7",HBV DNA in serum; 10 mpk intragastric once daily,2.67 log10
same,"Reduction levels (log10) of HBV DNA in serum, Day 14",HBV DNA in serum; 10 mpk intragastric once daily,3.80 log10
same,"Reduction levels (log10) of HBV DNA in serum, Day 21",HBV DNA in serum; 10 mpk intragastric once daily,4.30 log10
same,"Reduction levels (log10) of HBV DNA in serum, Day 28",HBV DNA in serum; 10 mpk,3.50 log10
same,F,"[4]; SD rats, PO 10 mg/kg vs IV 5 mg/kg",100%
same,half-life,"[4]; rat, iv, 5 mg/kg",52.8 h
same,half-life,"[4]; rat, po, 10 mg/kg",45.6 h
same,AUC(0-inf),[4]; [5],148 µg·h/mL
same,Cmax,[4]; [5],3510 ng/mL
same,clearance,[4]; [5],0.5 mL/min/kg
same,AUC(0-t),[4]; [5],127 µg·h/mL
same,Vd,"[4]; rat, plasma, SD rats, IV 5 mg/kg, read-out: Vz",2.58 L/kg
same,AUC(0-inf),[4]; [6],284 µg·h/mL
same,Cmax,[4]; [6],4110 ng/mL
same,AUC(0-t),[4]; [6],254 µg·h/mL
